According to patent US10046060B2, “Co-administration of an agent linked to an internalization peptide with an anti-inflammatory” (NoNO Inc., priority 2007, dated 2018):
Ends that are not written are not given here.

System: humans
Experiment: Safety, Tolerability and Pharmacokinetic Study in humans: blood histamine
Type: in vivo, human
Details: for Average histamine level of subjects with >10 nmol/L / Maximum histamine level: 3.75 mg/kg
Method: We carried out a Safety, Tolerability and Pharmacokinetic Study of Tat-NR2B9c in humans. Subjects were either normal, healthy, non-smoking males or post-menopausal or surgically sterile female subjects with a minimum age of 18 years. The subjects were either administered Tat-NR2B9c, Lot #: 124-134-001B, or were given placebo (Phosphate Buffered Saline), Lot #: 124-134-001A, administered as an intravenous infusion (10±1 minutes). Four subjects were dosed in each of Cohorts 1 to 3, and 10 subjects were dosed in each of Cohorts 4 to 8. All 62 subjects completed the study. Treatment periods for each cohort were as follows: Cohort 1: Sep. 14, 2006; Cohort 2: Sep. 26, 2006; Cohort 3: Oct. 6, 2006; Cohort 4: Oct. 20, 2006; Cohort 5: Nov. 6, 2006; Cohort 6: Dec. 4, 2006; Cohort 7: Dec. 17, 2006; Cohort 8: Feb. 25, 2007.
During the study period, 11 blood samples were collected for pharmacokinetic analysis from each subject at the following timepoints: 0.00 (pre-dose), 0.08 (5 minutes), 0.17 to 0.25 (10 to 15 minutes, precisely at the end of each individual drug infusion), 0.33 (20 minutes), 0.50, 0.75, 1.00, 2.00, 6.00, 12.00, and 24.00 hours post-dose. In addition, 8 blood samples were collected for histamine analysis from each subject at the following timepoints: 0.00 (pre-dose), and at 0.08 (5 minutes), 0.17 (10 minutes), 0.25, 0.50, 1.00, 2.00, and 24.00 hours post-dose.

[1] = 10 minutes after start of administration
[2] = 15 minutes after start of administration

How did the “Average histamine level of subjects with >10 nmol/L” value [1] turn out when YGRKKRRQRRRKLSSIESDV [Tat-NR2B9c] was run?
The value was 24.3 nmol/L.

What about the Maximum histamine level [1] of the same sequence?
Its Maximum histamine level is 39.8 nmol/L.

And the “Average histamine level of subjects with >10 nmol/L” value [2]?
The value was 15.3 nmol/L.

What about the Maximum histamine level [2] of the same sequence?
Its Maximum histamine level is 20.3 nmol/L.

And the “Number of Subjects with Histamine levels >10 nmol/L” value (“Number of Subjects” below) (NA-1 0.02 mg/kg (n = 2), Day 1, 0.00 hr)?
The value was 0.

What about the “Number of Subjects” value (NA-1 0.02 mg/kg (n = 2), Day 1, 0.08 hr) of the same sequence?
The value was 0.

What about the “Number of Subjects” value (NA-1 0.02 mg/kg (n = 2), Day 1, 0.17 hr) of the same sequence?
The value was 0.

And the “Number of Subjects” value (NA-1 0.02 mg/kg (n = 2), Day 1, 0.25 hr)?
The value was 0.

What about the “Number of Subjects” value (NA-1 0.02 mg/kg (n = 2), Day 1, 0.50 hr) of the same sequence?
Its value is 0.

What about the “Number of Subjects” value (NA-1 0.02 mg/kg (n = 2), Day 1, 1.00 hr) of the same sequence?
Its value is 0.

What about the “Number of Subjects” value (NA-1 0.02 mg/kg (n = 2), Day 1, 2.00 hr) of the same sequence?
Its value is 0.

And the “Number of Subjects” value (NA-1 0.02 mg/kg (n = 2), Day 1, 24.00 hr)?
The value was 0.

What about the “Number of Subjects” value (NA-1 0.02 mg/kg (n = 2), Day 7) of the same sequence?
The value was 0.

And the “Number of Subjects” value (NA-1 0.02 mg/kg (n = 2), Day 14)?
Its value is 0.

What about the “Number of Subjects” value (NA-1 0.02 mg/kg (n = 2), Day 28 End-of-study) of the same sequence?
The value was 0.

And the “Number of Subjects” value (NA-1 0.02 mg/kg (n = 2), Screening)?
The value was 0.

And the “Number of Subjects” value (NA-1 0.08 mg/kg (n = 2), Day 1, 0.00 hr)?
Its value is 0.

And the “Number of Subjects” value (NA-1 0.08 mg/kg (n = 2), Day 1, 0.08 hr)?
The value was 0.

What about the “Number of Subjects” value (NA-1 0.08 mg/kg (n = 2), Day 1, 0.17 hr) of the same sequence?
Its value is 0.

And the “Number of Subjects” value (NA-1 0.08 mg/kg (n = 2), Day 1, 0.25 hr)?
Its value is 0.

And the “Number of Subjects” value (NA-1 0.08 mg/kg (n = 2), Day 1, 0.50 hr)?
The value was 0.

And the “Number of Subjects” value (NA-1 0.08 mg/kg (n = 2), Day 1, 1.00 hr)?
Its value is 0.

What about the “Number of Subjects” value (NA-1 0.08 mg/kg (n = 2), Day 1, 2.00 hr) of the same sequence?
The value was 0.

And the “Number of Subjects” value (NA-1 0.08 mg/kg (n = 2), Day 1, 24.00 hr)?
Its value is 0.

What about the “Number of Subjects” value (NA-1 0.08 mg/kg (n = 2), Day 7) of the same sequence?
The value was 0.

And the “Number of Subjects” value (NA-1 0.08 mg/kg (n = 2), Day 14)?
Its value is 0.

What about the “Number of Subjects” value (NA-1 0.08 mg/kg (n = 2), Day 28 End-of-study) of the same sequence?
The value was 0.

What about the “Number of Subjects” value (NA-1 0.08 mg/kg (n = 2), Screening) of the same sequence?
Its value is 0.

What about the “Number of Subjects” value (NA-1 0.20 mg/kg (n = 2), Day 1, 0.00 hr) of the same sequence?
Its value is 0.

And the “Number of Subjects” value (NA-1 0.20 mg/kg (n = 2), Day 1, 0.08 hr)?
The value was 0.

What about the “Number of Subjects” value (NA-1 0.20 mg/kg (n = 2), Day 1, 0.17 hr) of the same sequence?
Its value is 0.

And the “Number of Subjects” value (NA-1 0.20 mg/kg (n = 2), Day 1, 0.25 hr)?
Its value is 0.

And the “Number of Subjects” value (NA-1 0.20 mg/kg (n = 2), Day 1, 0.50 hr)?
Its value is 0.

What about the “Number of Subjects” value (NA-1 0.20 mg/kg (n = 2), Day 1, 1.00 hr) of the same sequence?
The value was 0.

And the “Number of Subjects” value (NA-1 0.20 mg/kg (n = 2), Day 1, 2.00 hr)?
Its value is 0.

What about the “Number of Subjects” value (NA-1 0.20 mg/kg (n = 2), Day 1, 24.00 hr) of the same sequence?
The value was 0.

And the “Number of Subjects” value (NA-1 0.20 mg/kg (n = 2), Day 7)?
Its value is 0.

What about the “Number of Subjects” value (NA-1 0.20 mg/kg (n = 2), Day 14) of the same sequence?
Its value is 0.

And the “Number of Subjects” value (NA-1 0.20 mg/kg (n = 2), Day 28 End-of-study)?
The value was 0.

And the “Number of Subjects” value (NA-1 0.20 mg/kg (n = 2), Screening)?
The value was 0.

And the “Number of Subjects” value (NA-1 0.375 mg/kg (n = 8), Day 1, 0.00 hr)?
Its value is 0.

And the “Number of Subjects” value (NA-1 0.375 mg/kg (n = 8), Day 1, 0.08 hr)?
Its value is 0.

And the “Number of Subjects” value (NA-1 0.375 mg/kg (n = 8), Day 1, 0.17 hr)?
Its value is 0.

What about the “Number of Subjects” value (NA-1 0.375 mg/kg (n = 8), Day 1, 0.25 hr) of the same sequence?
The value was 0.

And the “Number of Subjects” value (NA-1 0.375 mg/kg (n = 8), Day 1, 0.50 hr)?
The value was 0.

What about the “Number of Subjects” value (NA-1 0.375 mg/kg (n = 8), Day 1, 1.00 hr) of the same sequence?
Its value is 0.

And the “Number of Subjects” value (NA-1 0.375 mg/kg (n = 8), Day 1, 2.00 hr)?
Its value is 0.

What about the “Number of Subjects” value (NA-1 0.375 mg/kg (n = 8), Day 1, 24.00 hr) of the same sequence?
Its value is 0.

And the “Number of Subjects” value (NA-1 0.375 mg/kg (n = 8), Day 7)?
Its value is 0.

And the “Number of Subjects” value (NA-1 0.375 mg/kg (n = 8), Day 14)?
Its value is 0.

What about the “Number of Subjects” value (NA-1 0.375 mg/kg (n = 8), Day 28 End-of-study) of the same sequence?
The value was 0.

And the “Number of Subjects” value (NA-1 0.375 mg/kg (n = 8), Screening)?
Its value is 1.
